# Measured values from ChEMBL document CHEMBL5724914, “Linking interpersonal differences in gut microbiota composition and drug biotransformation activity” (2024).
# Key:
# [1] = (§1) The drug is tested on Z-030 corresponding to mouse gut metagenome with ENA study accession number: PRJEB37062 and ENA sample accession number: ERS12561829 for biotransformation under anaerobic condition. The drug concentrations were measured over 9 timepoints collected between 0 and 24 hours of incubation by liquid-chromatography-coupled mass spectrometry (LC–MS); settings: 2 µM
# [2] = as §1, with “Z-028” for “Z-030”, “ERS12561827” for “ERS12561829”; settings: 2 µM
# [3] = as §1, with “Z-023” for “Z-030”, “to” for “to mouse gut”, “ERS12561822” for “ERS12561829”; settings: 2 µM
# [4] = as §1, with “Z-020” for “Z-030”, “rabbit” for “mouse”, “ERS12561819” for “ERS12561829”; settings: 2 µM
# [5] = as §1, with “Z-019” for “Z-030”, “rat” for “mouse”, “ERS12561818” for “ERS12561829”; settings: 2 µM
# [6] = as §1, with “Z-016” for “Z-030”, “ERS12561815” for “ERS12561829”; settings: 2 µM
# [7] = as §1, with “Z-014” for “Z-030”, “rat” for “mouse”, “ERS12561814” for “ERS12561829”; settings: 2 µM
# [8] = as §1, with “Z-013” for “Z-030”, “rabbit” for “mouse”, “ERS12561813” for “ERS12561829”; settings: 2 µM
# [9] = as §1, with “Z-011” for “Z-030”, “ERS12561811” for “ERS12561829”; settings: 2 µM
# [10] = as §1, with “WLS-098” for “Z-030”, “human” for “mouse”, “ERS12561754” for “ERS12561829”; settings: 2 µM
# [11] = as §1, with “WLS-077” for “Z-030”, “human” for “mouse”, “ERS12561750” for “ERS12561829”; settings: 2 µM
# [12] = as §1, with “WLS-007” for “Z-030”, “human” for “mouse”, “ERS12561742” for “ERS12561829”; settings: 2 µM
# [13] = human gut metagenome, 24 h, 2 µM
# [14] = human gut metagenome, 24 h, 2 µM; remark: listed apart in the source
# [15] = human gut metagenome, 24 h, 2 µM; remark: listed apart in the source
# [16] = human gut metagenome, 24 h, 2 µM; remark: listed apart in the source
# [17] = human gut metagenome, 24 h, 2 µM; remark: listed apart in the source
# [18] = human gut metagenome, 24 h, 2 µM; remark: listed apart in the source
# [19] = human gut metagenome, 24 h, 2 µM; remark: listed apart in the source
# [20] = human gut metagenome, 24 h, 2 µM; remark: listed apart in the source
# Further: call rule not given here.
Bacterial Biotransformation [1],Bacterial Biotransformation [2],Bacterial Biotransformation [3],Bacterial Biotransformation [4],Bacterial Biotransformation [5],Bacterial Biotransformation [6],Bacterial Biotransformation [7],Bacterial Biotransformation [8],Bacterial Biotransformation [9],Bacterial Biotransformation [10],Bacterial Biotransformation [11],Bacterial Biotransformation [12],Bacterial Biotransformation [13],Bacterial Biotransformation [14],Bacterial Biotransformation [15],Bacterial Biotransformation [16],Bacterial Biotransformation [17],Bacterial Biotransformation [18],Bacterial Biotransformation [19],Bacterial Biotransformation [20],Compound
Compound metabolized,Compound metabolized,Compound NOT metabolized,Compound NOT metabolized,Compound metabolized,Compound metabolized,Compound metabolized,Compound metabolized,Compound metabolized,Compound metabolized,Compound NOT metabolized,Compound metabolized,Compound NOT metabolized,Compound NOT metabolized,Compound metabolized,Compound metabolized,Compound metabolized,Compound NOT metabolized,Compound metabolized,Compound NOT metabolized,COc1ccc2[nH]c([S+]([O-])Cc3ncc(C)c(OC)c3C)nc2n1 (stereo not given) [TENATOPRAZOLE]
Compound NOT metabolized,Compound NOT metabolized,Compound metabolized,Compound NOT metabolized,Compound NOT metabolized,Compound NOT metabolized,Compound NOT metabolized,Compound NOT metabolized,Compound NOT metabolized,Compound NOT metabolized,Compound NOT metabolized,Compound NOT metabolized,Compound NOT metabolized,Compound NOT metabolized,Compound NOT metabolized,Compound NOT metabolized,Compound metabolized,Compound NOT metabolized,Compound NOT metabolized,Compound NOT metabolized,CN1C(C(=O)Nc2ccccn2)=C(O)c2sccc2S1(=O)=O [TENOXICAM]
Compound NOT metabolized,Compound NOT metabolized,Compound NOT metabolized,Compound NOT metabolized,Compound NOT metabolized,Compound NOT metabolized,Compound NOT metabolized,Compound NOT metabolized,Compound NOT metabolized,Compound metabolized,Compound NOT metabolized,Compound metabolized,Compound NOT metabolized,Compound NOT metabolized,Compound NOT metabolized,Compound NOT metabolized,Compound metabolized,Compound metabolized,Compound metabolized,Compound metabolized,O=c1n(CCCN2CCN(c3cccc(Cl)c3)CC2)nc2ccccn12 [TRAZODONE]
Compound NOT metabolized,Compound NOT metabolized,Compound metabolized,Compound metabolized,Compound NOT metabolized,Compound metabolized,Compound NOT metabolized,Compound NOT metabolized,Compound NOT metabolized,Compound metabolized,Compound metabolized,Compound metabolized,Compound metabolized,Compound NOT metabolized,Compound metabolized,Compound NOT metabolized,Compound metabolized,Compound metabolized,Compound metabolized,Compound metabolized,OC(CCN1CCCCC1)(c1ccccc1)C1CCCCC1 (stereo not given) [TRIHEXYPHENIDYL]
